Test results published in article PMC8151276, “An Integrated Approach toward NanoBRET Tracers for Analysis of GPCR Ligand Engagement” (Molecules, 2021).

Tests used:
CCR8 = target: T1, CCR8 (Homo sapiens, UniProt P51685); assay: NanoBRET screen HiBiT-CCR8 in HEK293; format: binding
T1 construct: purchased Promega (in-house HiBiT-GPCR construct library, NanoBRET)
Description: (§1) Each tracer candidate was screened across the entire library of HiBiT-GPCR constructs using NanoBRET as the detection modality. As depicted in Figure 4A, the specificity of interactions was evaluated through decrease in BRET due to competitive displacement of a bound tracer by excess parental compound. Each tracer was analyzed for binding to each HiBiT-GPCR fusion in the absence and in the presence of competing parental compound. Briefly, HEK293 cells were transfected with HiBiT-GPCR constructs diluted into promoterless DNA to reduce expression and maximize translocation to the cell surface. Each tracer candidate was then screened at concentrations of 1 μM and 0.1 μM across cells expressing these fusions. Cells were treated for 1.5 h with tracer either alone or in the presence of 20 μM competing parental compound (i.e., control). BRET was measured upon addition of purified LgBiT and subsequent complementation with HiBiT genetically fused to a GPCR. The specificity of interactions was assessed through a decrease in BRET signal due to competitive displacement of the bound tracer. To further gauge the robustness of these interactions, the fold response over the control (i.e., BRETtracer/BRETcontrol) was calculated. We chose a 1.5-fold response, which translates to ≥7-fold signal over noise as the minimal threshold required to score an interaction as positive. […]. Below we highlight the screening results obtained for our exemplary fluorescent tracers based on Clozapine, Amitriptyline and AZD1283.
(§2) HiBiT-GPCR DNA constructs were diluted in 10 mM Tris pH 8 to a final concentration of 0.01 μg/μL, arrayed in 96-well plates and stored at −20 °C. For transfection, HEK293 cells were suspended in Opti-MEM (without phenol red) supplemented with 2% fetal bovine serum (Seradigm) and 100 units/mL penicillin–streptomycin (Gibco) at a final concentration of 220,000 cells/mL and dispensed into white 96-well plates at 90 μL/well. Subsequent transfections and screens were carried using an Agilent Bravo Automated Liquid Handling Platform. First, the 96-well HiBiT DNA arrays were diluted 25-fold in Opti-MEM (without serum or phenol red) to a final concentration of 0.0004 μg/μL and 20 μL of the diluted DNAs were transferred into new 96-well plates. Next, promoterless carrier DNA (1 μg/μL) was diluted 25-fold (0.04 μg/μL) and then dispensed into the diluted arrays at 20 μL/well. Following brief mixing, Viafect transfection reagent (Promega) diluted 16-fold into Opti-MEM was dispensed into the plates at 40 μL/well. After mixing by pipetting, plates were incubated for 10 min on the pipetting station deck. The DNA-transfection reagent complexes were then added to plates containing cells. To facilitate the screen, 10 μL of DNA-transfection reagent complexes were added in duplicates to the top 4 and bottom 4 rows, resulting in two identical 48-well arrays per plate. Plates with transfected cells were incubated for 18–20 h at 37 °C/5% CO2. A screen of each tracer across the entire library using two different concentrations requires duplicate plates of transfected cells. Depending on the number of tracers being screened, transfections can be scaled up using the same ratios. The next day, for each tracer, four 20× screening solutions in tracer dilution buffer (Promega) were prepared: two duplicates at final concentration of 20 μM and two duplicates at a final concentration of 2 μM. A competing unmodified compound was added to one of each duplicate at a final concentration of 400 μM. The four resulting solutions were diluted 4-fold in Opti-MEM without serum or phenol red to generate 5× solutions (5 µM and 0.5 µM tracer +/− 100 μM competing compound). To screen the library, a BioTek MultiFlo FX liquid dispenser was used to dispense 22.5 µL of tracer solution to the top 4 rows and 22.5 µL tracer + competing compound solution to the 4 bottom rows. Plates were briefly mixed on an orbital shaker and incubated for 1.5 h at room temperature. […]

NMUR2 = target: T2, NMUR2 (Homo sapiens, UniProt Q9GZQ4); assay: NanoBRET screen HiBiT-NMUR2 in HEK293; format: binding
T2 construct: purchased Promega (in-house HiBiT-GPCR construct library, NanoBRET)
Description: as §1, §2

[1] = tracer at 0.1μM, listed as amitriptyline-b-2-NB590
[2] = tracer at 1μM, listed as amitriptyline-b-2-NB590

T1 sequence (P51685 whole entry): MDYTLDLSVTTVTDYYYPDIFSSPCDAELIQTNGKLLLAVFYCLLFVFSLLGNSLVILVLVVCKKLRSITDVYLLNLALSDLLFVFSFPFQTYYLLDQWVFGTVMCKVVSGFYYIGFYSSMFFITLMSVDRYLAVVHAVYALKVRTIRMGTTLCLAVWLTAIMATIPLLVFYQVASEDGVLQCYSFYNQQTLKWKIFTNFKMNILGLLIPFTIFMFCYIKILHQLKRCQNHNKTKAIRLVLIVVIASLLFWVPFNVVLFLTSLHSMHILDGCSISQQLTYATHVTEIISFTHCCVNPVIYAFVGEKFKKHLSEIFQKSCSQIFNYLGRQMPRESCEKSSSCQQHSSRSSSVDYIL
T2 sequence (Q9GZQ4 whole entry): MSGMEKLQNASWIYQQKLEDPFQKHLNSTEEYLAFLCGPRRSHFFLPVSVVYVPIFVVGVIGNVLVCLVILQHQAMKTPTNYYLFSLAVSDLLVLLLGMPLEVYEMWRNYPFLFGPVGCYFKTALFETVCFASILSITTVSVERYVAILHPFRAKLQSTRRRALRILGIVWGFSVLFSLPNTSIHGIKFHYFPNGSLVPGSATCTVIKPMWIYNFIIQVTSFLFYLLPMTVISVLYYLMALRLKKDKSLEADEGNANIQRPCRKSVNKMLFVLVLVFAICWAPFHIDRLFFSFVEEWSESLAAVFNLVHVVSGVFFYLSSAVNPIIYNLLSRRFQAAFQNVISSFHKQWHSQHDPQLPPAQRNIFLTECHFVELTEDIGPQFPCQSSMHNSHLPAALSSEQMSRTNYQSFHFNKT

SMILES	NanoBRET Fold Response (CCR8; CCR8, tracer 0.1μM)	NanoBRET Fold Response (CCR8; CCR8, tracer 1μM)	NanoBRET Fold Response (NMUR2; NMUR2, tracer 0.1μM)	NanoBRET Fold Response (NMUR2; NMUR2, tracer 1μM)	other results
CCOC(=O)c1cc(C#N)c(N2CCC(C(=O)NS(=O)(=O)Cc3ccccc3/C=C/C(=O)NCCNC(=O)CCc3ccc4n3[B-](F)(F)[N+]3=C(c5ccc[nH]5)C=CC3=C4)CC2)nc1C [AZD1283-1-NB590]					NanoBRET Fold Response (CCR8; CCR8, 0.1μM): 1.04; NanoBRET Fold Response (CCR8; CCR8, 1μM): 1.18; NanoBRET Fold Response (NMUR2; NMUR2, 0.1μM): 1.01; NanoBRET Fold Response (NMUR2; NMUR2, 1μM): 0.86
N#CN=C(NCCCOc1cccc(CN2CCCCC2)c1)NCCNC(=O)CCOCCOCCOCCOCCNC(=O)CCc1ccc2n1[B-](F)(F)[N+]1=C(c3ccc[nH]3)C=CC1=C2 [Aminopotentidine-2-NB590]	0.99	0.89	1.02	1.05	
CN(C)CCC=C1c2ccccc2CCc2ccc(C(=O)NCCNC(=O)CCOCCOCCOCCOCCNC(=O)CCc3ccc4n3[B-](F)(F)[N+]3=C(c5ccc[nH]5)C=CC3=C4)cc21 [Amitriptyline-a-2-NB590]					NanoBRET Fold Response (CCR8; tracer at 0.1μM): 0.94; NanoBRET Fold Response (CCR8; tracer at 1μM): 0.97; NanoBRET Fold Response (NMUR2; tracer at 0.1μM): 1.00; NanoBRET Fold Response (NMUR2; tracer at 1μM): 1.02
CN(C)CCC=C1c2ccccc2CCc2ccc(C(=O)NCCNC(=O)CCOCCOCCOCCOCCNC(=O)CCc3ccc4n3[B-](F)(F)[N+]3=C(c5ccc[nH]5)C=CC3=C4)cc21 [Amitriptyline-b-2-NB590]					NanoBRET Fold Response (CCR8; [1]): 1.03; NanoBRET Fold Response (CCR8; [2]): 1.03; NanoBRET Fold Response (NMUR2; [1]): 0.99; NanoBRET Fold Response (NMUR2; [2]): 1.00
CN(CCC=C1c2ccccc2CCc2ccccc21)C(=O)CCOCCOCCOCCOCCNC(=O)CCc1ccc2n1[B-](F)(F)[N+]1=C(c3ccc[nH]3)C=CC1=C2 [Amitriptyline-e-2-NB590]					NanoBRET Fold Response (CCR8; tracer at 1μM): 0.79
COc1ccc2c(n1)c(CCNC(C)=O)cn2CCNC(=O)CCc1ccc2n1[B-](F)(F)[N+]1=C(c3ccc[nH]3)C=CC1=C2 [Azamelatonin-1-NB590]					NanoBRET Fold Response (CCR8; 0.1μM tracer): 1.13; NanoBRET Fold Response (CCR8; 1μM tracer): 1.09; NanoBRET Fold Response (NMUR2; 0.1μM tracer): 1.00; NanoBRET Fold Response (NMUR2; 1μM tracer): 1.16
COc1ccc2[nH]c(-c3ccc(CNC(=O)CCOCCOCCOCCOCCNC(=O)CCc4ccc5n4[B-](F)(F)[N+]4=C(c6ccc[nH]6)C=CC4=C5)cc3)c(CCNC(C)=O)c2n1 [AzomelatoninICO9-2-NB590]					NanoBRET Fold Response (CCR8; 0.1μM tracer): 0.68; NanoBRET Fold Response (CCR8; 1μM tracer): 1.10; NanoBRET Fold Response (NMUR2; 0.1μM tracer): 0.71; NanoBRET Fold Response (NMUR2; 1μM tracer): 0.99
O=C(CCOCCOCCOCCOCCNC(=O)CCc1ccc2n1[B-](F)(F)[N+]1=C(c3ccc[nH]3)C=CC1=C2)NCCCN1CCN(C2=Nc3cc(Cl)ccc3Nc3ccccc32)CC1 [Clozapine-a-2-NB590]					NanoBRET Fold Response (CCR8; CCR8, 0.1μM tracer): 1.02; NanoBRET Fold Response (CCR8; CCR8, 1μM tracer): 0.93; NanoBRET Fold Response (NMUR2; NMUR2, 0.1μM tracer): 0.93; NanoBRET Fold Response (NMUR2; NMUR2, 1μM tracer): 1.01
CN1CCN(C2=Nc3cc(Cl)ccc3Nc3ccc(CNC(=O)CCOCCOCCOCCOCCNC(=O)CCc4ccc5n4[B-](F)(F)[N+]4=C(c6ccc[nH]6)C=CC4=C5)cc32)CC1 [Clozapine-b-2-NB590]					NanoBRET Fold Response (CCR8; CCR8, 0.1μM tracer): 0.88; NanoBRET Fold Response (CCR8; CCR8, 1μM tracer): 0.89; NanoBRET Fold Response (NMUR2; NMUR2, 0.1μM tracer): 0.97; NanoBRET Fold Response (NMUR2; NMUR2, 1μM tracer): 1.00
CN1CCN(C2=Nc3cc(Cl)ccc3N(CC(=O)NCCOCCOCCOCCOCCNC(=O)CCc3ccc4n3[B-](F)(F)[N+]3=C(c5ccc[nH]5)C=CC3=C4)c3ccccc32)CC1 [Clozapine-c-2-NB590]					NanoBRET Fold Response (CCR8; CCR8, 0.1μM tracer): 0.97; NanoBRET Fold Response (CCR8; CCR8, 1μM tracer): 0.96; NanoBRET Fold Response (NMUR2; NMUR2, 0.1μM tracer): 1.12; NanoBRET Fold Response (NMUR2; NMUR2, 1μM tracer): 0.92
O=C(CCOCCOCCOCCOCCNC(=O)CCc1ccc2n1[B-](F)(F)[N+]1=C(c3ccc[nH]3)C=CC1=C2)NCCCN1CCN(C2=Nc3ccccc3Oc3ccc(Cl)cc32)CC1 [Loxapine-a-2-NB590]	1.02	1.10	1.07	0.74	
COc1ccccc1N1CCN(CCCCN2C(=O)c3ccc(CNC(=O)CCOCCOCCOCCOCCNC(=O)CCc4ccc5n4[B-](F)(F)[N+]4=C(c6ccc[nH]6)C=CC4=C5)cc3C2=O)CC1 [NAN-190-2-NB590]	0.92	0.92			
COc1ccccc1N1CCN(CCCCN2C(=O)c3ccc(CNC(=O)CCOCCNC(=O)c4ccc(CNC(=O)CCc5ccc6n5[B-](F)(F)[N+]5=C(c7ccc[nH]7)C=CC5=C6)cc4)cc3C2=O)CC1 [NAN-190-3-NB590]	0.67	1.01	1.04	0.75	
O=C(CCc1ccc2n1[B-](F)(F)[N+]1=C(c3ccc[nH]3)C=CC1=C2)NCc1ccc(C(=O)NCCOCCC(=O)N[C@@H]2CC[C@@]3(O)[C@H]4Cc5ccc(O)c6c5[C@@]3(CCN4CC3CC3)[C@H]2O6)cc1 [Naltrexone-3-NB590]	1.14	1.02	0.78	0.84	
Cc1cc2c(s1)Nc1ccccc1N=C2N1CCN(CCCNC(=O)CCOCCOCCOCCOCCNC(=O)CCc2ccc3n2[B-](F)(F)[N+]2=C(c4ccc[nH]4)C=CC2=C3)CC1 [Olanzapine-a-2-NB590]	0.96	0.95	0.94	0.98	
O=C(CCc1ccc2n1[B-](F)(F)[N+]1=C(c3ccc[nH]3)C=CC1=C2)NCc1ccc(C(=O)NCCOCCOCCNCC(O)COc2cccc3ccccc23)cc1 (stereo not shown) [Propranolol-3-NB590]					NanoBRET Fold Response (CCR8; CCR8, 0.1μM): 1.00; NanoBRET Fold Response (CCR8; CCR8, 1μM): 0.93; NanoBRET Fold Response (NMUR2; NMUR2, 0.1μM): 1.06; NanoBRET Fold Response (NMUR2; NMUR2, 1μM): 1.08
O=C(CCc1ccc2n1[B-](F)(F)[N+]1=C(c3ccc[nH]3)C=CC1=C2)NCCOCCOCCNC(=O)OCCOCCN1CCN(C2=Nc3ccccc3Sc3ccccc32)CC1 [Quetiapine-a-2-NB590]	0.93	1.16	1.02	0.82	
Cc1nc2n(c(=O)c1CCN1CCC(c3noc4cc(F)ccc34)CC1)CCCC2OC(=O)NCCOCCOCCOCCOCCNC(=O)CCc1ccc2n1[B-](F)(F)[N+]1=C(c3ccc[nH]3)C=CC1=C2 (stereo not shown) [Risperidone-2-NB590]	0.98	0.89	1.09	1.05	
CC(C)N(CC[C@H](c1ccccc1)c1cc(CCNC(=O)CCOCCOCCOCCOCCNC(=O)CCc2ccc3n2[B-](F)(F)[N+]2=C(c4ccc[nH]4)C=CC2=C3)ccc1O)C(C)C [Tolterodine-2-NB590]	0.82	1.07	1.31	1.07	
CC(C)N(CC[C@H](c1ccccc1)c1cc(CCNC(=O)c2ccc(CNC(=O)CCc3ccc4n3[B-](F)(F)[N+]3=C(c5ccc[nH]5)C=CC3=C4)cc2)ccc1O)C(C)C [Tolterodine-BZ-NB590]	0.92	1.00	1.00	1.06	
CCCn1c(=O)c2[nH]c(-c3ccc(OCC(=O)NCCNC(=O)CCOCCNC(=O)c4ccc(CNC(=O)CCc5ccc6n5[B-](F)(F)[N+]5=C(c7ccc[nH]7)C=CC5=C6)cc4)cc3)nc2n(CCC)c1=O [XAC-3-NB590]	0.90	0.93	1.11	0.89	
